Measured values from PubChem BioAssay AID1648 (Sanford-Burnham Center for Chemical Genomics, 2009).
Calls of active or inactive are those of the source. No rule for the calls is given here. Residues, ends and D or L forms follow the SMILES beside them.

Biological target: Serine/threonine-protein kinase mTOR (Homo sapiens) (UniProt P42345)
Assay: binders of mTOR FRB domain, biophysical, NMR (AID 1648)
Settings: NMR binding to FRB domain, chemical shift

Sequence of Serine/threonine-protein kinase mTOR (Homo sapiens) (P42345 2015-2114): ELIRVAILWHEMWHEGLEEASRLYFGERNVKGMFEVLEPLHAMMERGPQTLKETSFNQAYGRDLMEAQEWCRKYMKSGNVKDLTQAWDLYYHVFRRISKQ

Row | Compound | Kd
1 | CC1(C)Cc2nc3[nH]c(=S)[nH]c(=O)c3cc2CO1 | > 4 mM (inactive)
2 | O=C(O)C1CC(=O)N(Cc2ccc(F)cc2)C1 (configuration not stated) | > 4 mM (inactive)
3 | COc1ccc(NC(=O)C(N)=O)cc1Cl | > 4 mM (inactive)
4 | O=C(O[C@@H]1Cc2c(O)cc(O)cc2O[C@@H]1c1cc(=O)c(O)c2c(O)c(O)cc([C@H]3Oc4cc(O)cc(O)c4C[C@H]3O)c2c1)c1cc(O)c(O)c(O)c1 | > 4 mM (inactive)
5 | NC(=O)C1CCN(c2nccc(C(F)(F)F)n2)CC1 | > 4 mM (inactive)
6 | Cc1ccn(S(=O)(=O)c2ccc(C(C)(C)C)cc2)n1 | > 4 mM (inactive)
7 | CC(=O)NCS(=O)(=O)c1ccc(C)cc1 | > 4 mM (inactive)
8 | Cc1cc(NC(=O)c2cccc(N3C(=O)CCC3=O)c2)no1 | > 4 mM (inactive)
9 | COC(=O)N(c1ccccc1)P1(=S)OCCO1 | > 4 mM (inactive)
10 | COc1ccc2cc3[n+](cc2c1OC)CCc1cc2c(cc1-3)OCO2 | > 4 mM (inactive)
11 | COC1=CC(=O)C[C@@H](C)[C@]12Oc1c(Cl)c(OC)cc(OC)c1C2=O | > 4 mM (inactive)
12 | CCc1ccc2oc(-c3cc(N)cc(C)c3O)nc2c1 | > 4 mM (inactive)
13 | CCNC(CC(=O)Nc1cccc([N+](=O)[O-])c1)C(=O)O (configuration not stated) | > 4 mM (inactive)
14 | CCN(CC)S(=O)(=O)c1ccc(F)cc1 | > 4 mM (inactive)
15 | O=C(O)c1ccccc1N1CCOCC1 | > 4 mM (inactive)
16 | NC(=O)c1ccc(NC(=O)C2CC2)cc1 | > 4 mM (inactive)
17 | COc1cc2c(cc1-c1cc3cc4ccoc4cc3oc1=O)OCO2 | > 4 mM (inactive)
18 | CN(C)S(=O)(=O)c1ccc(N2CCOCC2)nc1 | > 4 mM (inactive)
19 | OCc1ccc2nonc2c1 | > 4 mM (inactive)
20 | C=CC(=O)N1CC2CC(C1)c1cccc(=O)n1C2 (configuration not stated) | > 4 mM (inactive)
21 | CC(=O)Nc1nnc(-c2ccco2)o1 | > 4 mM (inactive)
22 | Nc1ccc(Cc2ccncc2)cc1 | > 4 mM (inactive)
23 | OC1CNCc2cc3c(cc21)OCCO3 (configuration not stated) | > 4 mM (inactive)
24 | O=[n+]1cc(-c2ccccc2)n([O-])c2c1CCC2 | > 4 mM (inactive)

Row | Compound | Kd
25 | CC(=O)O[C@@H]1CC2C(C)(C)[C@H](O)CC[C@]2(C)C2CC[C@@]3(C)[C@H](c4ccoc4)OC(=O)C4OC43[C@@]21C (some centres not stated) | > 4 mM (inactive)
26 | CC1=C(C(N)=O)C(c2ccco2)C(C(N)=O)=C(C)N1 | > 4 mM (inactive)
27 | OCc1ccccc1CN1CCOCC1 | > 4 mM (inactive)
28 | O=c1c2ccccc2nc2n1CCS2 | > 4 mM (inactive)
29 | COCCn1c(N)nc2c1c(=O)[nH]c(=O)n2C | > 4 mM (inactive)
30 | Nc1cc(C(=O)N2CCCC2)cc(C(=O)N2CCCC2)c1 | > 4 mM (inactive)
31 | CNC(=S)Nc1ncn(Cc2cccc(F)c2)n1 | > 4 mM (inactive)
32 | NC1CS(=O)(=O)CC1O (configuration not stated) | > 4 mM (inactive)
33 | NS(=O)(=O)c1ccc(N=Cc2cccs2)cc1 | > 4 mM (inactive)
34 | O=c1c2ccccc2nc2n1CCC2O (configuration not stated) | > 4 mM (inactive)
35 | CNc1nc(SC)nc(N2CCOCC2)n1 | > 4 mM (inactive)
36 | Cn1c(SCC(N)=O)nc2c1c(=O)[nH]c(=O)n2C | > 4 mM (inactive)
37 | CSc1ccccc1NC(=O)c1cccnc1 | > 4 mM (inactive)
38 | CCOC(=O)C1CCNCC1 | > 4 mM (inactive)
39 | CC1=C2C(=CO[C@H](C)[C@H]2C)C(=O)C(C(=O)O)=C1O | > 4 mM (inactive)
40 | COC(=O)C[C@@H]1C2(C)C(=O)[C@@H](CC3=C4CC(O)O[C@@H](c5ccoc5)[C@]4(C)CCC32)[C@H](O)C1(C)C (some centres not stated) | > 4 mM (inactive)
41 | Cc1nnc(Nc2ccc(S(N)(=O)=O)cc2)[nH]c1=O | > 4 mM (inactive)
42 | S=C(CN1CCCC1=S)N1CCOCC1 | > 4 mM (inactive)
43 | NC(N)=NCCCCN=C(N)N | > 4 mM (inactive)
44 | COc1ccccc1NS(=O)(=O)c1c[nH]c(=O)[nH]c1=O | > 4 mM (inactive)
45 | O=C1CCCc2c1nc(-c1ccccc1)n2O | > 4 mM (inactive)
46 | Cc1nc(CC(=O)O)c(-c2ccccc2)s1 | > 4 mM (inactive)
47 | Cc1cccc(NS(=O)(=O)c2cccs2)n1 | > 4 mM (inactive)
48 | O=C(O[C@@H]1Cc2c(O)cc(O)cc2O[C@@H]1c1cc(O)c(O)c(O)c1-c1c([C@H]2Oc3cc(O)cc(O)c3C[C@H]2O)cc(O)c(O)c1O)c1cc(O)c(O)c(O)c1 | > 4 mM (inactive)

Row | Compound | Kd
49 | CSc1ccccc1NC(=O)c1ccc(C)o1 | > 4 mM (inactive)
50 | C[C@@H]1CC[C@@]2(OC1)OC1CC3C4CC=C5C[C@@H](O)CC[C@]5(C)C4CC[C@]3(C)C1[C@@H]2C (some centres not stated) | > 4 mM (inactive)
51 | NC1=NC(=O)/C(=C\c2ccco2)S1 | > 4 mM (inactive)
52 | O=C(Nc1cccc(O)c1)c1ccccc1 | > 4 mM (inactive)
53 | COc1cc(C(=S)N2CCCC2)cc(Cl)c1O | > 4 mM (inactive)
54 | O=C(c1cc(Cl)cc(Cl)c1)N1CCOCC1 | > 4 mM (inactive)
55 | O=C(O)CSCc1ccc(Cl)cc1 | > 4 mM (inactive)
56 | O=C(CSc1ncnc2ccccc12)NCCCO | > 4 mM (inactive)
57 | O=C1CSC(=Nc2ccccc2[N+](=O)[O-])N1 | > 4 mM (inactive)
58 | CC1=C/C(=C\c2c(O)[nH]c(=O)[nH]c2=O)C(C)=N1 | > 4 mM (inactive)
59 | Nc1nc(-c2ccc(O)cc2)cs1 | > 4 mM (inactive)
60 | CCc1c(C(=O)N2CCOCC2)csc1C | > 4 mM (inactive)
61 | CC1CN(Cc2ccccn2)CCC1=O (configuration not stated) | > 4 mM (inactive)
62 | O=S1(=O)CCC(NC(=S)Nc2ccccn2)C1 (configuration not stated) | > 4 mM (inactive)
63 | COc1cc2c(c(OC)c1OC)-c1ccc(OC)c(=O)cc1[C@@H](NC(C)=O)CC2 | > 4 mM (inactive)
64 | Nc1ccc(Oc2ccccc2)nc1 | > 4 mM (inactive)
65 | CCSc1nnc(-c2ccccc2N)c(=O)[nH]1 | > 4 mM (inactive)
66 | Cc1c(C)c2c(c(C)c1O)CCC(C)(CCCC(C)CCCC(C)CCCC(C)C)O2 (configuration not stated) | > 4 mM (inactive)
67 | COc1cccc(-c2nc3ccc(O)cc3c(=O)o2)c1 | > 4 mM (inactive)
68 | COc1cc(O)c2c(=O)c(O)c(-c3ccc(O)c(O)c3)oc2c1 | > 4 mM (inactive)
69 | CNC(=O)C(=O)NCc1ccc(C)cc1 | > 4 mM (inactive)
70 | CC(=O)c1ccc(CC2SC(N)=NC2=O)cc1 (configuration not stated) | > 4 mM (inactive)
71 | C(=Nn1cnnc1)c1ccccc1 | > 4 mM (inactive)
72 | C=C1C(N)CC2CC1C2(C)C (configuration not stated) | > 4 mM (inactive)

Row | Compound | Kd
73 | COc1c(-c2coc3cc4c(cc3c2=O)CC(O)C(C)(C)O4)ccc2c1C=CC(C)(C)O2 (configuration not stated) | > 4 mM (inactive)
74 | O=C(O)CC(O)c1nc2ccccc2[nH]1 (configuration not stated) | > 4 mM (inactive)
75 | O=C1NC(=Nc2ccc(O)cc2)S/C1=C/c1ccco1 | > 4 mM (inactive)
76 | O=C(O)C1CC(=O)N(CCc2ccc(Cl)cc2)C1 (configuration not stated) | > 4 mM (inactive)
77 | O=C(CS(=O)(=O)c1ccccc1)Nc1nccs1 | > 4 mM (inactive)
78 | COc1ccc(C(N)=O)cc1NC(C)=O | > 4 mM (inactive)
79 | CC(=O)O[C@@H]1CC[C@@]2(C)C(CC[C@]3(C)C2CC=C2C4CC(C)(C)CC[C@]4(C(=O)O)CC[C@]23C)C1(C)C (some centres not stated) | > 4 mM (inactive)
80 | CC(=O)N[C@@H](CC(=O)O)C(=O)N[C@@H](CCC(=O)O)C(=O)O (Ac-Asp-Glu-OH) | > 4 mM (inactive)
81 | CNC(=O)Cn1c(=O)n(C)c2ccccc21 | > 4 mM (inactive)
82 | Nc1ccccc1N1CCOCC1 | > 4 mM (inactive)
83 | C=CCCCCCCCCCCCC(O)CC(O)COC(C)=O (configuration not stated) | > 4 mM (inactive)
84 | NS(=O)(=O)c1ccccc1Cl | > 4 mM (inactive)
85 | COC1=CC(=O)C(O)=C/C1=C\C=C\c1ccccc1 | > 4 mM (inactive)
86 | O=C(Nc1ccon1)c1sc2cc(F)ccc2c1Cl | > 4 mM (inactive)
87 | O=C(NCCO)c1cc2ccccc2cc1O | > 4 mM (inactive)
88 | OCCNc1nc2ccc(Cl)cc2[nH]1 | > 4 mM (inactive)
89 | Cc1[nH]n(-c2ccccc2)c(=O)c1[N+](=O)[O-] | > 4 mM (inactive)
90 | CC(=O)NCc1nc2ccccc2[nH]1 | > 4 mM (inactive)
91 | COC(=O)c1cncc(C(=O)OC)c1 | > 4 mM (inactive)
92 | Cc1ccc(C(=O)NCCO)c(Cl)c1 | > 4 mM (inactive)
93 | NC(=NCCC[C@H](N)C(=O)O)NC(CCC(=O)O)C(=O)O (some centres not stated) | > 4 mM (inactive)
94 | O=C(Nn1cnnc1)c1csc2ccccc12 | > 4 mM (inactive)
95 | COc1cc(OC)c2c(OC)c(-c3ccc4c(c3)OCO4)c(=O)oc2c1 | > 4 mM (inactive)
96 | Cc1ccc(CNc2ccc(O)cc2)cc1 | > 4 mM (inactive)

Row | Compound | Kd
97 | N#Cc1nc(-c2cccs2)oc1N1CCOCC1 | > 4 mM (inactive)
98 | CC(=O)OCc1cc(=O)n(C)c(=O)n1C | > 4 mM (inactive)
99 | c1ccc(Cn2cccc2)nc1 | > 4 mM (inactive)
100 | Cn1nc(C(C)(C)C)cc1N | > 4 mM (inactive)
101 | CC(Sc1ncn[nH]1)C(=O)O (configuration not stated) | > 4 mM (inactive)
102 | O=C(Nc1cnc2ccccn2c1=O)c1ccc(F)cc1 | > 4 mM (inactive)
103 | Nc1ccn(C2O[C@H](CO)[C@@H](O)[C@H]2O)c(=O)n1 (some centres not stated) | > 4 mM (inactive)
104 | Nc1cccc(CC(=S)N2CCOCC2)c1 | > 4 mM (inactive)
105 | NC(=O)C1CCN(S(=O)(=O)c2ccccc2)CC1 | > 4 mM (inactive)
106 | O=C(O)c1ccc(NCc2cccnc2)cc1 | > 4 mM (inactive)
107 | c1ccc(-c2csc(Nc3cccnc3)n2)nc1 | > 4 mM (inactive)
108 | O=C(NN1CCOCC1)c1cccs1 | > 4 mM (inactive)
109 | CCOC(=O)Cc1nc2ccccc2[nH]1 | > 4 mM (inactive)
110 | Cc1ccc(N2NC(=O)CC2=O)cc1C | > 4 mM (inactive)
111 | Cc1nc(NCc2ccco2)nc2c1C(=O)CC(C)C2 (configuration not stated) | > 4 mM (inactive)
112 | NC(=S)NC1CCS(=O)(=O)C1 (configuration not stated) | > 4 mM (inactive)
113 | COc1ccc(-c2coc3c(OC)c(OC)cc(O)c3c2=O)cc1 | > 4 mM (inactive)
114 | Cc1cc(=O)n2ncn(Cc3ccccc3)c2n1 | > 4 mM (inactive)
115 | Cc1noc(C)c1C(=O)Nc1sc(C)c(C)c1C#N | > 4 mM (inactive)
116 | Cc1cc(C)nc(/N=C(/N)N2CCN(C)CC2)n1 | > 4 mM (inactive)
117 | NCCN=C1NS(=O)(=O)c2ccccc21 | > 4 mM (inactive)
